US20030109418A1, “Methods for identifying compounds for inhibition of neoplastic lesions, and pharmaceutical compositions containing such compounds” (priority 1999, published 2003)
Where a name gives a salt, the structure may show the parent alone.

Columns and labels:
[1] = tested on: Colo 205; assay: Growth inhibition, neutral red assay, Colo 205; assay type: cell-based, human; settings: free base, five days
Experimental: (§1) Compound I's activity is not confined to activity against colon cancer cell lines or animal models of colon cancer. It has a broad range of anti-neoplastic effects in various neoplastic cell lines. Various types of human cancer cell lines were propagated under sterile conditions in RPMI 1640 medium with 10% fetal bovine serum, 2 mM L-glutamine and sodium bicarbonate. To determine growth inhibitory effects of Compound I, cells were seeded in 96-well plates at a density of 1000 cells per well. Twenty-four hours after plating, the cells were dosed with various concentrations of the free base of Compound I solubilized in DMSO (final concentration 0.1%). The effect of the drug on tumor cell growth was determined using the neutral red cytotoxicity assay following five days of continuous treatment. Neutral red is a dye that is selectively taken up by viable cells by an ATP-dependent transport mechanism.

[2] = rat, in vivo
[3] = tested on: RPMI-8226; assay: Growth inhibition, neutral red assay, RPMI-8226; assay type: cell-based; settings: Homo sapiens, HCl salt
Experimental: as §1

[4] = Single, escalating dose human safety study; assay type: in vivo; settings: single escalating oral doses
[5] = tested on: SW-480 cell line; assay: Growth inhibition in SW-480; assay type: cell-based; settings: Homo sapiens, SW480
Experimental: The growth inhibition IC50 value obtained for Compound I was 0.7 μM in the SW-480 cell line. […] This established rodent model of azoxymethane (“AOM”)-induced carcinogenesis was used to assess the effects of Compound I (free base and salt) on colon cancer development in vivo. ACF are precursors to colonic tumors, and ACF inhibition is predictive of chemo-preventive efficacy.

[6] = tested on: CCRF-CEM; assay: Growth inhibition, neutral red assay, CCRF-CEM; assay type: cell-based; settings: Homo sapiens, HCl salt
Experimental: as §1

[7] = tested on: PKG activity in SW480 colon cancer cells; assay: PKG assay of lysates of drug-treated SW480 cells; assay type: cell-based, human; settings: SW480 treated 48 hrs; exisulind 200, 400, 600 μM; E4021 0.1, 1, 10 μM; with and without added cGMP
Source text: That sequence is known and described in the literature below. […] One way to bind the PDE5 sequences to a solid phase is to express those sequences as a fusion protein of the PDE5 sequence and one member of an amino acid binding pair, and chemically link the other member of that amino acid binding pair to a solid phase (e.g., beads). One binding pair that can be used is glutathione S-transferase (“GST”) and glutathione (“GSH”), with the GST being expressed as a fusion protein with the PDE5 sequence described above, and the GSH bound covalently to the solid phase. In this fashion, the PDE5 sequence/GST fusion protein can be bound to a solid phase simply by passing a solution containing the fusion protein over the solid phase, as described below.
To assay a liquid sample believed to contain PKG using the PDE5-bound solid phase described above, the sample and the solid phase are mixed with phosphorylation buffer containing ^32P-γ-ATP. The solution is incubated for 30 minutes at 30° C. to allow for phosphorylation of the PDE5 sequence by PKG to occur, if PKG is present. […]
For each control or drug cell lysate sample to be evaluated, the reaction is started by adding phosphorylation buffer containing 10 μCi ^32P-γ-ATP solution (200 μM ATP, 4.5 mM MgCl; 5 mM KH2PO4; 5 mM K2HPO4;) to each mixture. […]

[8] = biological target: T1, cGMP binding sites of the GST-cGB-PDE5 protein (Homo sapiens, UniProt O76074); assay: cGMP binding assay with GST-cGB-PDE5 fusion protein; settings: 3H-cGMP 2 μM
T1 construct: made in house; host or cells: E. coli BL21 (DE3)
T1 sequence (O76074 46-539 limits assumed): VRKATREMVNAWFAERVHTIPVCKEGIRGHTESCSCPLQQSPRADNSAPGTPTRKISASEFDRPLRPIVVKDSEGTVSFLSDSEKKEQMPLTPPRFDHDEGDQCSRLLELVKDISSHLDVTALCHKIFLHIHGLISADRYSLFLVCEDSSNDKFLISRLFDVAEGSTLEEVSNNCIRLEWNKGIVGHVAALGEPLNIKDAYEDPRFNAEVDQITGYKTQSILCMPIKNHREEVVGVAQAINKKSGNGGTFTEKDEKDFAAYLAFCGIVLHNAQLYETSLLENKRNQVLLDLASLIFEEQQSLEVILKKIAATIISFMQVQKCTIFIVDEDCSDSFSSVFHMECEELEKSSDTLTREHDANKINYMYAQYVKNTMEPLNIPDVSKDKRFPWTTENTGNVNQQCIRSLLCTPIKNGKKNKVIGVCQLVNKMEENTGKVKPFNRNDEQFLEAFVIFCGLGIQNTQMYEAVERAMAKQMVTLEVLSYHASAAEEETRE

[9] = tested on: PKG activity in HCT116 colon cancer cells; assay: PKG assay of lysates of drug-treated HCT116 cells; assay type: cell-based
Source text: To test the effect of cGMP-specific PDE inhibition on neoplasia containing the β-catenin mutation, HCT116 colon cancer cells were employed. HCT116 is known to contain the β-catenin mutation, but is known not to contain the APC mutation.
The same procedure is used to grow the HCT116 cells as is used in the SW480 procedure described above. In this experiment, only exisulind and controls were used.

SMILES | GI50 ([1]; Homo sapiens, COLO 205, 120 h) | GI90 μM, Colo 205 [1] | signs of toxicity, single oral doses [2] | findings after single intraperitoneal dose ([2]; ip, 1000 mg/kg) | body weight gain, single oral dose ([2]; po, 4000 mg/kg) | GI50 [3] | side effects in humans [4] | IC50 [5] | GI50 [6] | PKG activity relative to control [7] | competition with cGMP in binding of GST-cGB-PDE5 [8] | PKG activation relative to controls [9]
CC1=C(CC(=O)NCc2ccccc2)c2cc(F)ccc2/C1=C\c1ccncc1 [Compound I, (Z)-5-fluoro-2-methyl-(4-pyridylidene)-3-(N-benzyl)indenylacetamide hydrochloride] | 1.6 µM | 2.4 µM | no observable signs of toxicity | reduced body weight gain, with mesenteric adhesions seen in some animals | body weight gains were slightly reduced | 1.2 µM | no significant side effects at any dose | 700 nM | 1.4 µM | – | – | –
CC1=C(CC(=O)O)c2cc(F)ccc2/C1=C\c1ccc(S(C)(=O)=O)cc1 [Exisulind, 5-fluoro-2-methyl-1-(p-methylsulfonylbenzylidene)-3-indenylacetic acid] | – | – | – | – | – | – | – | – | – | causes PKG activity to increase in a dose-dependent manner | do not bind to the cGMP binding sites of PDE5 | yielded PKG that was phosphorylated to a greater extent than the corresponding controls
